Columns and labels:
Human alphaherpesvirus 1 [1] = test: Effective dose required to inhibit cell growth against HSV-1 (schooler); assay type: functional; conditions: read-out: ED50 (the source's name)
Human alphaherpesvirus 2 [2] = test: Effective dose required to inhibit cell growth against HSV-2 (186); assay type: functional; conditions: read-out: ED50 (the source's name)
Human betaherpesvirus 5 [3] = test: Effective dose required to inhibit cell growth against HCMV (AD169); assay type: functional; conditions: read-out: ED50 (the source's name)
Human alphaherpesvirus 3 [4] = test: Effective dose required to inhibit cell growth against VZV (Ellen); assay type: functional; conditions: read-out: ED50 (the source's name)
Human alphaherpesvirus 3 [5] = test: Effective dose required to inhibit cell growth against VZV (Ellen); Value ranges from 25-63; assay type: functional; conditions: read-out: ED50 (the source's name)
Human alphaherpesvirus 2 [6] = test: Effective dose required to inhibit cell growth against HSV-2 (186); Value ranges from 88-176; assay type: functional; conditions: read-out: ED50 (the source's name)
Human alphaherpesvirus 3 [7] = test: Effective dose required to inhibit cell growth against VZV (Ellen); Value ranges from 88-177; assay type: functional; conditions: read-out: ED50 (the source's name)
Human alphaherpesvirus 1 [8] = test: Effective dose required to inhibit cell growth against HSV-1 (schooler); Value ranges from 0.7-1.8; assay type: functional; conditions: read-out: ED50 (the source's name)
Human betaherpesvirus 5 [9] = test: Effective dose required to inhibit cell growth against HCMV (AD169); Value ranges from 3.5-35; assay type: functional; conditions: read-out: ED50 (the source's name)
Human alphaherpesvirus 3 [10] = test: Effective dose required to inhibit cell growth against VZV (Ellen); Value ranges from 1.8-3.5; assay type: functional; conditions: read-out: ED50 (the source's name)
Human alphaherpesvirus 1 [11] = test: Effective dose required to inhibit cell growth against HSV-1 (schooler); Value ranges from 0.7-1.7; assay type: functional; conditions: read-out: ED50 (the source's name)
Human alphaherpesvirus 2 [12] = test: Effective dose required to inhibit cell growth against HSV-2 (186); Value ranges from 0.3-0.7; assay type: functional; conditions: read-out: ED50 (the source's name)
Human betaherpesvirus 5 [13] = test: Effective dose required to inhibit cell growth against HCMV (AD169); Value ranges from 18-35; assay type: functional; conditions: read-out: ED50 (the source's name)
Human alphaherpesvirus 3 [14] = test: Effective dose required to inhibit cell growth against VZV (Ellen); Value ranges from 0.7-1.7; assay type: functional; conditions: read-out: ED50 (the source's name)
Human betaherpesvirus 5 [15] = test: Effective dose required to inhibit cell growth against HCMV (AD169); Value ranges from 20-40; assay type: functional; conditions: read-out: ED50 (the source's name)
Human alphaherpesvirus 1 [16] = test: microbe, parasite or virus in culture; conditions: Human alphaherpesvirus 1, read-out: ED50
Human alphaherpesvirus 2 [17] = test: microbe, parasite or virus in culture; conditions: Human alphaherpesvirus 2, read-out: ED50
Human alphaherpesvirus 3 [18] = test: microbe, parasite or virus in culture; conditions: Human alphaherpesvirus 3, read-out: ED50

## Nc1ccn([C@@H]2C(F)C(CO)[C@@H]2CO)c(=O)n1 (stereo partly drawn)
Human alphaherpesvirus 1 [1]
  EC50: > 411 µM
Human alphaherpesvirus 2 [2]
  EC50: ≥ 411 µM
Human betaherpesvirus 5 [3]
  EC50: > 411 µM
Human alphaherpesvirus 3 [4]
  EC50: > 411 µM

## O=c1[nH]c(=O)n([C@@H]2C(F)[C@H](CO)C2CO)cc1/C=C/I (stereo partly drawn)
Human alphaherpesvirus 1 [1]
  EC50: > 252 µM
Human alphaherpesvirus 2 [2]
  EC50: > 252 µM
Human betaherpesvirus 5 [3]
  EC50: > 252 µM
Human alphaherpesvirus 3 [5]
  EC50: 25 µM

## Nc1nc(O)c2ncn([C@@H]3C(F)[C@H](CO)C3CO)c2n1 (stereo partly drawn)
Human alphaherpesvirus 1 [1]
  EC50: 88 µM
Human alphaherpesvirus 2 [6]
  EC50: 88 µM
Human betaherpesvirus 5 [3]
  EC50: > 353 µM
Human alphaherpesvirus 3 [7]
  EC50: 88 µM

## O=c1[nH]c(=O)n([C@@H]2C(F)[C@H](CO)C2CO)cc1/C=C/Br (stereo partly drawn)
Human alphaherpesvirus 1 [1]
  EC50: > 286 µM
Human alphaherpesvirus 2 [2]
  EC50: > 286 µM
Human betaherpesvirus 5 [3]
  EC50: > 286 µM
Human alphaherpesvirus 3 [4]
  EC50: 286 µM

## Nc1nc(O)c2ncn([C@@H]3C(F)[C@H](CO)C3CO)c2n1 (mixture of isomers)
Human alphaherpesvirus 1 [8]
  EC50: 0.7 µM
Human alphaherpesvirus 2 [2]
  EC50: 0.7 µM
Human betaherpesvirus 5 [9]
  EC50: 3.5 µM
Human alphaherpesvirus 3 [10]
  EC50: 1.8 µM

## Nc1nc(O)c2ncn([C@@H]3C(F)[C@H](CO)C3CO)c2n1 (single isomer, unassigned; (-))
Human alphaherpesvirus 1 [11]
  EC50: 0.7 µM
Human alphaherpesvirus 2 [12]
  EC50: 0.3 µM
Human betaherpesvirus 5 [13]
  EC50: 18 µM
Human alphaherpesvirus 3 [14]
  EC50: 0.7 µM

## Nc1nc2c(ncn2COCCO)c(=O)[nH]1 [ACYCLOVIR]
Human betaherpesvirus 5 [15]
  EC50: 20 µM
Human alphaherpesvirus 1 [16]
  EC50: 0.2 µM
Human alphaherpesvirus 2 [17]
  EC50: 0.4 µM
Human alphaherpesvirus 3 [18]
  EC50: 2 µM
